Assay results from the supplement of paper PMC10307832.

Columns and labels:
Assay in all cases: relative viability (nuclei count vs DMSO), 5 days (fraction); higher = more cells survive
CUDC-101 + Palbociclib = compound: C#Cc1cccc(Nc2ncnc3cc(OC)c(OCCCCCCC(=O)NO)cc23)c1 [CUDC-101] + CC(=O)c1c(C)c2cnc(Nc3ccc(N4CCNCC4)cn3)nc2n(C2CCCC2)c1=O [Palbociclib] (partner 0.5 µM)
Procedure, shortened: (§1)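 A single step with final 0.05% Triton X-100, 1% formaldehyde and 1 ug/ml Hoechst fixed the cells and stained nuclei 5 days after treatment. Lung cancer cell lines in 1536-well plates had been treated by pin tool the day after seeding with one drug alone or a fixed anchor-drug dose plus five library-drug doses (not always all listed) in √10 steps, and nuclei were counted on 4× images. Relative viability is the ratio of nuclei in treated wells to nuclei in vehicle wells, taken as the median of duplicate plates.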

Vandetanib + Vorinostat = compound: COc1cc2/c(=N/c3ccc(Br)cc3F)nc[nH]c2cc1OCC1CCN(C)CC1 [Vandetanib] + O=C(CCCCCCC(=O)Nc1ccccc1)NO [Vorinostat] (partner 1 µM)
Procedure, shortened: as §1

CUDC-101 + Dasatinib = compound: C#Cc1cccc(Nc2ncnc3cc(OC)c(OCCCCCCC(=O)NO)cc23)c1 [CUDC-101] + Cc1nc(Nc2ncc(C(=O)Nc3c(C)cccc3Cl)s2)cc(N2CCN(CCO)CC2)n1 [Dasatinib] (partner 0.075 µM)
Procedure, shortened: as §1

NVP-TAE684 + Lapatinib = compound: COc1cc(N2CCC(N3CCN(C)CC3)CC2)ccc1Nc1ncc(Cl)c(Nc2ccccc2S(=O)(=O)C(C)C)n1 [NVP-TAE684] + CS(=O)(=O)CCNCc1ccc(-c2ccc3ncnc(Nc4ccc(OCc5cccc(F)c5)c(Cl)c4)c3c2)o1 [Lapatinib] (partner 2 µM)
Procedure, shortened: as §1

| Cell Line | relative viability (CUDC-101 + Palbociclib; first compound 0.01 µM) | relative viability (CUDC-101 + Palbociclib; first compound 0.03162 µM) | relative viability (CUDC-101 + Palbociclib; first compound 0.1 µM) | relative viability (CUDC-101 + Palbociclib; first compound 0.3162 µM) | relative viability (CUDC-101 + Palbociclib; first compound 1 µM) | relative viability (Vandetanib + Vorinostat; first compound 0.02 µM) | relative viability (Vandetanib + Vorinostat; first compound 0.06325 µM) | relative viability (Vandetanib + Vorinostat; first compound 0.2 µM) | relative viability (Vandetanib + Vorinostat; first compound 0.6325 µM) | relative viability (Vandetanib + Vorinostat; first compound 2 µM) | relative viability (CUDC-101 + Dasatinib; first compound 0.01 µM) | relative viability (CUDC-101 + Dasatinib; first compound 0.03162 µM) | relative viability (CUDC-101 + Dasatinib; first compound 0.1 µM) | relative viability (CUDC-101 + Dasatinib; first compound 0.3162 µM) | relative viability (CUDC-101 + Dasatinib; first compound 1 µM) | relative viability (NVP-TAE684 + Lapatinib; first compound 0.2 µM) | relative viability (NVP-TAE684 + Lapatinib; first compound 0.6325 µM) | relative viability (NVP-TAE684 + Lapatinib; first compound 2 µM) |
| --- | --- | --- | --- | --- | --- | --- | --- | --- | --- | --- | --- | --- | --- | --- | --- | --- | --- | --- |
| NCI-H3122 | 0.206 | 0.214 | 0.187 | 0.177 | 0.175 | 0.95 | 0.965 | 1.08 | 1.02 | 0.994 | 0.82 | 0.867 | 0.798 | 0.783 | 0.454 | 0.369 | 0.213 | 0.18 |
| PC-3 [JPC-3] | 0.465 | 0.574 | 0.493 | 0.527 | 0.481 | 0.808 | 0.739 | 0.492 | 0.449 | 0.348 | 0.954 | 0.932 | 0.753 | 0.483 | 0.542 | 0.472 | 0.446 | 0.387 |
| PC-14 | 0.629 | 0.425 | 0.338 | 0.0958 | 0.0539 | 0.774 | 0.619 | 0.493 | 0.107 | 0.0824 | 0.292 | 0.232 | 0.0804 | 0.0597 | 0.0289 | 0.336 | 0.305 | 0.245 |
| RERF-LC-KJ | 1.15 | 1.16 | 1.01 | 0.844 | 0.813 | 0.689 | 0.607 | 0.724 | 0.608 | 0.536 | 0.793 | 0.891 | 0.765 | 0.793 | 0.421 | 0.871 | 0.867 | 0.905 |
| SK-LU-1 | 0.371 | 0.354 | 0.407 | 0.455 | 0.311 | 0.879 | 0.494 | 0.798 | 0.918 | 0.767 | 0.189 | 0.219 | 0.177 | 0.207 | 0.196 | 0.98 | 0.873 | 0.486 |
| SK-MES-1 | 0.301 | 0.33 | 0.341 | 0.305 | 0.316 | 1.05 | 0.916 | 1.1 | 0.949 | 0.795 | 0.333 | 0.394 | 0.367 | 0.417 | 0.207 | 0.539 | 0.453 | 0.472 |
| SW 1573 | 0.376 | 0.346 | 0.441 | 0.501 | 0.315 | 0.635 | 0.674 | – | 0.957 | 0.751 | 0.62 | 0.764 | 0.517 | 0.498 | 0.358 | 1.16 | 1.12 | 1.13 |
